Reference: patent US20220064736A1, “UROTHELIAL CANCER AND METHODS OF DETECTION AND TARGETED THERAPY” (THE JOHNS HOPKINS UNIVERSITY, priority 2015, published 2022)
Blank lines part the entries; values can stand above or below the molecule they belong to.

Tests used:
GULP1 transcript = test: 5-Aza-dC treatment of UC cell lines, GULP1 expression by RT-PCR; assay type: cell-based, human
Method: Twenty four hours before treatment, cells were plated at low density (1-3×10^6 cells, dependent on growth characteristics of the respective cell line) in T75 cm^2 Tissue Culture Flasks (BD Biosciences, Bedford, Mass., USA). Stock solutions of 100 mM 5-Aza-dC (Sigma-Aldrich, St. Louis, Mo.) and 5 mM Trichostatin A (TSA) (Sigma-Aldrich) were prepared with DMSO (Sigma-Aldrich). Immediately before addition to the cell culture medium, appropriate aliquots of the stock solutions were dissolved in PBS (pH 7.5). Cells were treated with 5 μM 5-Aza-dC for 3 to 5 days. Medium with 5-Aza-dC was changed daily. Additionally, combination treatment with 5-Aza-dC and TSA was performed by adding 5 μM of 5-Aza-dC daily for 5 days and TSA (300 nmol/L) was added to the medium for the final 24 hours. Cells were harvested 24 hours after the last day of treatment (5-Aza-dC only and 5-Aza-dC+TSA) for RNA extraction and the analysis of gene expression by Reverse Transcriptase-PCR (RT-PCR).
Total RNA (500 ng) from cell lines and from bladder tissue were reverse-transcribed with qScript cDNA SuperMix™ (Quanta BioSciences) kit. The primers were designed by using Primer3 software. Actin type B (ACTB) was used as a loading control. […] Expression of the gene of interest was quantified by 2^−ΔΔCT method.

[1] = test system: GULP1 localization in T24 cells; test: Confocal imaging of GULP1 subcellular localization upon blocking nuclear export; assay type: cell-based, human; settings: treatment for 5 hours
Method: To this end, the subcellular localization of GULP1 was determined by confocal microscopy analysis and nuclear-cytoplasm fractionation experiments using T24 cell line. The findings indicate that GULP1 localized in both nucleus and cytoplasm (FIG. 3d, upper and lower panel, and FIG. 8a). Ubiquitous localization pattern of GULP1 was further confirmed by performing immunofluorescence and confocal microscopy analysis by using two different antibodies against GULP1 and upon blocking nuclear export machinery by Leptomycin B (LMB) treatment for 5 hours (T24 cells in FIG. 3d and FIG. 8b).
Cells were grown on glass coverslips for 72 hs. After fixation in 4% paraformaldehyde, they were incubated in PBS 0.2% Glycine, permeabilized with PBS 10% Triton X100 for 10 minutes and incubated in Blocking buffer (PBS 3% BSA, 10% goat serum, 0.02% Tween) for 2-3 hours at r.t.
Incubation with the indicated primary antibodies (see Table 5) has been performed at 4° C. in the dark. After 5 washing with PBS 0.02% Tween, coverslips have been incubated with the indicated secondary antibodies (Table 5) for 1 h at r.t. For the case actin cytoskeleton analysis, after fixation, the coverslips have been incubated 90 minutes with Alexa Fluor® 488 Phalloidin (Life Technologies, 1:1000 in PBS). […] Slides were examined and photographed using a fluorescence microscope.

[2] = test system: T24 shGULP1 cells versus T24 shScramble cells; test: MTT viability assay upon treatment with serial dilution of cisplatin; assay type: cell-based, human; settings: T24 shGULP1 vs T24 shScramble, different concentrations of CDDP
[3] = test system: muscle-invasive bladder cancer (MIUC); settings: patients with MIUC, neo-adjuvant chemotherapy preceding radical surgery; cited from earlier work
[4] = target: T1, Nuclear factor E2-related factor 2 (Nrf2) (UniProt Q16236 1-605, limits assumed); test: co-immunoprecipitation of endogenous GULP1 from whole-cell lysates (BFTC905, BFTC909, HUC1, T24), western blot
T1 construct: Endogenous protein from lysates of human cell lines; also called NFE2L2; NF2EL2
T1 sequence (looked up): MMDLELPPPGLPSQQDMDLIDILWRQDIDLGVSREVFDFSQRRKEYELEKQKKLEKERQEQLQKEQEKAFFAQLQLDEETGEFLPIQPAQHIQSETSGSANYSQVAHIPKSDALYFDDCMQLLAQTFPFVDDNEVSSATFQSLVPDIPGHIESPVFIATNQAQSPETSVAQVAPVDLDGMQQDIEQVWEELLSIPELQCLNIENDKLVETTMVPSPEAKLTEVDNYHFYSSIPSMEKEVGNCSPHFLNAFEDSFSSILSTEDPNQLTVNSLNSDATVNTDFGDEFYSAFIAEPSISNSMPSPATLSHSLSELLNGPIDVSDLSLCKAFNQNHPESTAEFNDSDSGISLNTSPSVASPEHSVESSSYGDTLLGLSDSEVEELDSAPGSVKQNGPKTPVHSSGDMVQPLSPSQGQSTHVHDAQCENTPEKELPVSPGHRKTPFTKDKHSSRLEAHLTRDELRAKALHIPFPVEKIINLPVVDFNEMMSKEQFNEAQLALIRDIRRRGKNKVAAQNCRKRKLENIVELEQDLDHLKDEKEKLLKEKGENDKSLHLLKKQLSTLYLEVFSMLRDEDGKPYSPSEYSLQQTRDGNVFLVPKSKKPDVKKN
Text: (§1) a. […] Confocal imaging analysis of T24 cells. […] A not related protein antibody was used as a negative control for IP and 10% of whole cell lysate was used as input. d.

[5] = target: T2, BTB and CNC homology 1 (Bach1) (UniProt O14867 1-736); test: as above
T2 construct: Endogenous protein from lysates of human cell lines
T2 sequence (looked up): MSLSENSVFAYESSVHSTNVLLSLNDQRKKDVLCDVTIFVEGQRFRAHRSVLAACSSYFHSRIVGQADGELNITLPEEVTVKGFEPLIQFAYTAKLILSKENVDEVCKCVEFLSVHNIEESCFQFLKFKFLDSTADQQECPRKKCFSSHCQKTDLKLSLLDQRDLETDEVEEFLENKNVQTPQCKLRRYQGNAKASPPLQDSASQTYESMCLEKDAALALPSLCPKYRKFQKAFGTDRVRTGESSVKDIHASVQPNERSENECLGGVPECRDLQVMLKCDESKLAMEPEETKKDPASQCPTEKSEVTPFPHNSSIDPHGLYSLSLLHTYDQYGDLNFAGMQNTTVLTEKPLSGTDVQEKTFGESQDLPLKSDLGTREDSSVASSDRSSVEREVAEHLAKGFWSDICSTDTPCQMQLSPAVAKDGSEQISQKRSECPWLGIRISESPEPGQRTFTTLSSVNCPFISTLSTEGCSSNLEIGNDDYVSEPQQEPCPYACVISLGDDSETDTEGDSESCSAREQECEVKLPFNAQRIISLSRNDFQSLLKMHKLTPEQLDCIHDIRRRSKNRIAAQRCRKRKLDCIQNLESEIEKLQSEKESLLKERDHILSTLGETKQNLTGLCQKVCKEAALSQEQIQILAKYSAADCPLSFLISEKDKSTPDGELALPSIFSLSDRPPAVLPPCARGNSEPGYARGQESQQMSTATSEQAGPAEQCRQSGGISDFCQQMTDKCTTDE
Text: as §1

Molecule: Nc1ncn([C@H]2C[C@H](O)[C@@H](CO)O2)c(=O)n1 [5-aza-dC, 5-Aza-2′-deoxycytidine]
GULP1 transcript level (GULP1 transcript; HT-1376 and SW780 UC cells, 5-azadC with or without trichostatin A (TSA), consistent with promoter demethylation): several fold increase in GULP1 transcript
GULP1 reactivation (GULP1 transcript; UC cell lines): reactivation of GULP1 was observed

Molecule: CCC(=C/[C@H](C)C/C=C/C(C)=C/[C@@H](C)C(=O)[C@@H](C)[C@H](O)[C@@H](C)C/C(C)=C/C(=O)O)/C=C/[C@@H]1OC(=O)C=C[C@@H]1C [Leptomycin B]
GULP1 nuclear export [1]: prevent GULP1 from going out from nucleus

Molecule: [NH2][Pt]([NH2])([Cl])[Cl] [CDDP, Cisplatin]
Cell viability of GULP1 knock-down cells compared with control cells [2]: significantly higher viability than the control cells
overall long-term survival benefit [3]: 6%

binding result [4]: no binding
binding result [5]: no binding
B1: PTB Domain-Containing Engulfment Adaptor Protein1 (GULP1) (other, human, UniProt Q9UBP9 1-304, looked up)
chain: MNRAFSRKKDKTWMHTPEALSKHFIPYNAKFLGSTEVEQPKGTEVVRDAVRKLKFARHIKKSEGQKIPKVELQISIYGVKILEPKTKEVQHNCQLHRISFCADDKTDKRIFTFICKDSESNKHLCYVFDSEKCAEEITLTIGQAFDLAYRKFLESGGKDVETRKQIAGLQKRIQDLETENMELKNKVQDLENQLRITQVSAPPAGSMTPKSPSTDIFDMIPFSPISHQSSMPTRNGTQPPPVPSRSTEIKRDLFGAEPFDPFNCGAADFPPDIQSKLDEMQEGFKMGLTLEGTVFCLDPLDSRC
notes: Endogenous protein from cell lysates; also called engulfment adaptor PTB domain containing 1; human homologue of CED-6
